These are literature values, as cited in patent publication US20240228667A9, “Methods for Treating Multiple Myeloma” (Celgene Corporation, priority 2021, published 2024).

The data set relates to acute myeloid leukemia (AML) at relapse. The note with it: CT-011 administered alone.

“CT-011: anti-PD-1 antibody, a humanized antibody”: the “response in treating acute myeloid leukemia (AML) at relapse” value was “failed to show response”.
